Reference: patent US11234964B2, “Use of melatonin for the treatment of tumors” (UNIVERSIDAD DE GRANADA, priority 2017, dated 2022)
Entries after “also recorded” stand apart in the source; their conditions may differ.

What was measured:
[1] = athymic nude (nu/nu), mouse, in vivo
Protocol: (§1) For the in vivo assays, athymic nude mice (nu/nu) (Janvier, Pays de la Loire, France) of about 5-6 weeks of age (18-20 g) were used. The animals were held in the animal housing unit of the Biomedical Research Center of University of Granada (CIBM) in sterile conditions and under controlled photoperiod (12:12 h) and temperature (22±1° C.) environments, with ad libitum water and laboratory diet. The handling and transplant of the animals was carried out in a laminar flow biosafety cabinet. The animals were anesthetized with an i.p. injection of ketamine (80 mg/kg) and xylazine (4 mg/kg).
(§2) Xenografts were performed with CAL-27 and SCC9 cells (the latter being resistant to melatonin). Cells enzymatically separated with trypsin-EDTA are resuspended at a concentration of 4×10^6 cells per mouse in PBS. Cell viability is determined by means of the Trypan Blue test. The cells are injected into the left flank of the mouse, with a volume of 200 μL of cell suspension being injected into each mouse with the help of a 1 mL syringe with a needle measuring 16×0.5 mm.
The experimental groups were as follows: • 1. […]
The concentration of melatonin in the tumors was measured after sacrificing the animals after 21 days. When it is injected directly into the tumor, the concentration of melatonin cannot be measured due to the limited amount of sample taking into account that the tumor practically disappears.

tumor cells [2] = assay: Mitochondrial changes, oxygen consumption and free radicals in tumor cells; assay type: cell-based
Description: The relationship between the mitochondrial changes caused by melatonin and the cell death induced by this molecule in these tumor cells was studied. Melatonin increases the number of mitochondria as well as the number of cristae, DNA, and mitochondrial mass. The result is an increase in respiratory chain complexes, and accordingly an increase in oxygen consumption, which is related to an increase in free radicals and oxidative stress reflected by an increase in the GSSG/GSH ratio. However, the antioxidant capacity is not modified. The activity and the expression of antioxidant enzymes such as GPx and the GRd is not modified either. […] In other words, mitochondrial activity increases, and accordingly free radicals which induce cell death also increase. To carry out the assays, CAL-27 and SCC9 cells have been used as typical example of head and neck squamous cell carcinoma (HNSCC) cancer cells.

tumor cells [3] = assay: Melatonin penetration in tumor cells in vitro; assay type: cell-based; details: cells incubated with 1500 μM melatonin for 24 hours
Protocol: To carry out the assays, CAL-27 and SCC9 cells have been used as typical example of head and neck squamous cell carcinoma (HNSCC) cancer cells.
In the in-vitro experiments, the tumor cells were incubated with different concentrations of melatonin. It was observed that melatonin readily enters the tumor cells, reaching levels of 450 ng/mg of proteins after incubating the cells with melatonin at a dose of 1500 μM for 24 hours (FIG. 1).

CAL-27 tumor cells = assay: GPx and GRd antioxidant enzyme activity in tumor cells; assay type: cell-based
Description: The relationship between the mitochondrial changes caused by melatonin and the cell death induced by this molecule in these tumor cells was studied. Melatonin increases the number of mitochondria as well as the number of cristae, DNA, and mitochondrial mass. The result is an increase in respiratory chain complexes, and accordingly an increase in oxygen consumption, which is related to an increase in free radicals and oxidative stress reflected by an increase in the GSSG/GSH ratio. However, the antioxidant capacity is not modified. The activity and the expression of antioxidant enzymes such as GPx and the GRd is not modified either.

tumor cells (CAL-27) = assay: Cell death, apoptosis and proliferation of tumor cells in vitro; assay type: cell-based
Description: To carry out the assays, CAL-27 and SCC9 cells have been used as typical example of head and neck squamous cell carcinoma (HNSCC) cancer cells. […] The relationship between the mitochondrial changes caused by melatonin and the cell death induced by this molecule in these tumor cells has been studied. Melatonin increases mitochondrial mass, mitochondrial DNA, the number of mitochondria, as well as the number of mitochondrial cristae. The result is an increase in respiratory chain complexes, and accordingly an increase in oxygen consumption, which is related to an increase in free radicals and oxidative stress. […] In other words, the cytotoxic effects of melatonin in the tumor cells are related to an increase in mitochondrial function, and the increase in mitochondrial function in the tumor cell in turn induces apoptosis processes, which also entails the inhibition of protein synthesis.

SCC-9 cells = assay: Mitochondrial function and free radicals in melatonin-resistant cells; assay type: cell-based
Description: The relationship between the mitochondrial changes caused by melatonin and the cell death induced by this molecule in these tumor cells was studied. Melatonin increases the number of mitochondria as well as the number of cristae, DNA, and mitochondrial mass. The result is an increase in respiratory chain complexes, and accordingly an increase in oxygen consumption, which is related to an increase in free radicals and oxidative stress reflected by an increase in the GSSG/GSH ratio. However, the antioxidant capacity is not modified. The activity and the expression of antioxidant enzymes such as GPx and the GRd is not modified either. […] To carry out the assays, CAL-27 and SCC9 cells have been used as typical example of head and neck squamous cell carcinoma (HNSCC) cancer cells.

[4] = test system: CAL-27 and SCC9 cells xenografts; assay: Tumor volume in xenografted mice (photographs, NMR analysis); assay type: in vivo, athymic nude mice (nu/nu); details: for tumor volume: intratumoral injection
Protocol: as §1, §2
The body weight and tumor size are measured and recorded two or three times a week throughout the experiment. The tumor volume is calculated using the following formula: ½ (L×W2) (mm^3), where L is the length and W is the width. After the appearance of a tumoral node (100 mm^3), the mice carrying the tumors are randomly assigned to several groups.
The experimental groups were as follows: • 1. Mouse with untreated tumor • 2. Mouse with tumor treated with subcutaneously administered melatonin (s.c.) at a dose of 300 mg/kg (4.5% w/v melatonin solution). The concentration of melatonin in the tumor when melatonin is administered through this route is 10 ng/mg of proteins. • 3. Mouse with tumor treated with administered intratumorally melatonin (60 μl of a 0.1% w/v melatonin solution) fora tumor volume of 100 mm^3. 0.1% of melatonin is the minimum effective dose (in vitro) for inducing 80% cell death. When 0.1% of melatonin is administered, a concentration of 450 ng/mg of proteins is reached in the tumor. • 4. Mouse with tumor treated with intratumorally melatonin administered (60 μl of a 4.5% melatonin solution) for a tumor volume of 100 mm^3.
Therefore, once the tumor reached the indicated volume of 100 mm^3, it is treated with melatonin daily for 21 days according to the following protocol: • A. Injected s.c. (300 mg/kg which is equivalent to a 4.5% solution) • B. Injected directly into the tumor (60 μl of a 0.1% melatonin solution) • C. Injected directly into the tumor (60 μl of a 4.5% melatonin solution) • D. Injected directly into the tumor (60 μl of a 0.1% melatonin solution) until the complete disappearance of the tumor (28 days). • E. Photographs of the tumor were taken at the end of the treatment of each of the groups. […]

In the case of `COc1ccc2[nH]cc(CCNC(C)=O)c2c1` [melatonin, N-acetyl-5-methoxytryptamine], the “concentration of melatonin reached in the tumor” value [1] is reported as 450 ng/mg of proteins, the ATP production (tumor cells [2]) is reported as “does not increase” and the “GSSG/GSH ratio (oxidative stress)” value (tumor cells [2]) is reported as “increase”. The free radicals (tumor cells [2]) was “increase”, the “intermediate products of the Krebs cycle (metabolomics)” value (tumor cells [2]) was “increase” and the “mitochondrial DNA” value (tumor cells [2]) was “increases”. The mitochondrial mass (tumor cells [2]) was “increases”, the “number of mitochondria and number of cristae” value (tumor cells [2]) was “increases” and the oxygen consumption (tumor cells [2]) was “increase”. For the same molecule, the “melatonin levels in tumor cells” value (tumor cells [3]) was 450 ng/mg of proteins, the SOD (CAL-27 tumor cells) was “slight increase” and the antioxidant capacity (CAL-27 tumor cells) was “not modified”. For the same molecule, the “GPx and GRd antioxidant enzyme activity” value (CAL-27 tumor cells; CAL-27 tumor cells) was “not modified; also recorded: does not increase”, the cell cycle (tumor cells (CAL-27)) was “stopping of cell cycle in the S and G2 phases” and the cell proliferation (tumor cells (CAL-27)) was “Inhibition”. For the same molecule, the “size and number of colonies of tumor cells” value (tumor cells (CAL-27); CAL-27 irradiated and treated with melatonin) was “significant decrease”, the “minimum effective dose (in vitro) for inducing 80% cell death” value (tumor cells (CAL-27); in vitro) was 0.1% and the apoptosis (tumor cells (CAL-27); tumor cells, high concentrations) was “increases apoptosis in a dose and time dependent manner”. For the same molecule, the “mitochondrial oxygen consumption and production of free radicals” value (SCC-9 cells; SCC-9 cells, compared with CAL-27) was “less production of reactive oxygen species; also recorded: much lower”, the “sensitivity of cells to melatonin” value (SCC-9 cells; SCC-9 head and neck cancer cells) was “more resistant” and the tumor volume ([4]; 21 days after treatment) was “decreases drastically; also recorded: disappearing almost completely; also recorded: the decrease in tumor volume is so drastic that the tumor can hardly be observed”. The tumor volume ([4]; 28 days after treatment) was “completely disappears; also recorded: disappears completely; also recorded: virtually disappeared”, the “necrotic areas in tumors (NMR images)” value ([4]; s.c. administered melatonin) was “certain necrotic areas are observed” and the “tumor volume with respect to the control” value ([4]; subcutaneous (systemic route), 300 mg/kg, 21 days) was “decreases very little; also recorded: the decrease in tumor volume is much lower; also recorded: the tumor volume decreases, although the effect is not very significant”.
